pIC50: −log10 of the molar value. Read-outs that look alike come from different tables or passages of the source.
How the values were obtained:
tubulin = assay: Inhibition of tubulin polymerization (turbidimetry); type: biochemical, bovine; conditions: for pIC50: second series (Tables V-VII, IX), read-out: Inhibition of Tubulin Polymerization IC50 (±S.D.)
MLM melanoma = assay: MTT cytotoxicity assay, MLM; conditions: […], read-out: Cytotoxicity ED50, MLM
A-549 lung carcinoma = assay: MTT cytotoxicity assay, A-549; conditions: Homo sapiens, A549, […], read-out: Cytotoxicity ED50, A-549
MCF-7 breast carcinoma = assay: MTT cytotoxicity assay, MCF-7; conditions: Homo sapiens, MCF7, […], read-out: Cytotoxicity ED50, MCF-7
[1] = system: HT-29 colon adenocarcinoma; assay: MTT cytotoxicity assay, HT-29; conditions: Homo sapiens, HT-29, […], read-out: Cytotoxicity ED50, HT-29
SKMEL-5 melanoma = assay: MTT cytotoxicity assay, SKMEL-5; conditions: Homo sapiens, SK-MEL-5, […], read-out: Cytotoxicity ED50, SKMEL-5
[2] = system: five cancer cell cultures; assay: MTT cytotoxicity assay, five cancer cell cultures taken together; conditions: for cytotoxicity (in words): five cancer cell lines
[3] = read-out: cytotoxicity ED50, five cancer cell lines

| Compound | pIC50 (tubulin) | pIC50 (MLM melanoma) | pIC50 (A-549 lung carcinoma) | pIC50 (MCF-7 breast carcinoma) | pIC50 [1] | pIC50 (SKMEL-5 melanoma) | pIC50 ([2]; read-out: cytotoxicity ED50, in at least four cell lines) | cytotoxicity (in words) [2] | pIC50 ([2]; read-out: cytotoxicity ED50, in at least three cell lines) | inhibition of tubulin polymerization (in words) (tubulin) | pIC50 [2, 3] | pIC50 ([2]; read-out: cytotoxicity ED50) |
| --- | --- | --- | --- | --- | --- | --- | --- | --- | --- | --- | --- | --- |
| CCOc1ccc(CCc2cc(OC)c(OC)c(OC)c2)cc1 [17a, 1-(4-Ethoxyphenyl)-2-(3,4,5-trimethoxyphenyl)ethane] | 5.00 | 5.57 | 6.72 | 6.72 | 6.74 | 6.77 | > 6.00 | – | – | – | – | – |
| COc1cc(CCc2ccc(OCCN(C)C)cc2)cc(OC)c1OC [17f] | < 4.40 | < 4.60 | < 4.60 | 4.99 | 5.01 | 4.94 | – | decreased cytotoxicity | – | – | – | – |
| COc1cc(/C=C/c2ccc(SC)cc2)cc(OC)c1OC [16c] | – | 5.14 | 6.33 | 7.23 | 7.08 | 6.55 | – | – | ~7.00 | – | – | – |
| COc1ccccc1/C=C\c1cc(OC)c(OC)c(OC)c1 [compound 5c, (Z)-1-(2-Methoxyphenyl)-2-(3,4,5-trimethoxyphenyl)ethene] | – | 5.07 | 5.96 | 5.89 | 6.06 | 5.92 | – | decreased the activity drastically | – | low activity | – | – |
| COC(=O)C(Cc1cc(OC)c(OC)c(OC)c1)c1ccc(OC)cc1 (stereo not shown) [compound 17j, Methyl 2-(4-methoxyphenyl)-3-(3,4,5-trimethoxyphenyl)n-proponate] | < 4.40 | < 4.60 | < 4.60 | < 4.60 | < 4.60 | < 4.60 | – | – | – | – | < 4.60 | – |
| COc1cc(/C=C\c2cccnc2)cc(OC)c1OC [5j, (Z)-1-(3-Pyridyl)-2-(3,4,5-trimethoxyphenyl)ethene] | – | < 4.60 | 4.86 | 4.83 | 5.01 | 5.22 | – | – | – | – | < 5.00 | – |
| COc1cc(/C=C\c2ccc(C(C)C)cc2)cc(OC)c1OC [compound 15f, (Z)-[4-(2-Propyl)phenyl]-2-(3,4,5-trimethoxyphenyl)ethene] | – | 7.15 | 8.18 | 8.85 | 8.62 | 9.33 | – | – | – | – | – | 7.15 to 9.33 |
| COc1ccc(Cc2c3cc(OC)c(OC)c(OC)c3cc[n+]2C)cc1 [compound 37, 1-(4'-Methoxybenzyl)-5,6,7-trimethoxyisoquinoline Methiodide] | < 4.40 | < 4.60 | 4.71 | < 4.60 | 4.69 | 5.68 | – | – | – | – | – | – |
| COc1cc(/C=C/c2ccc(C(C)C)cc2)cc(OC)c1OC [16f, (E)-[4-(2-Propyl)phenyl]-2-(3,4,5-trimethoxyphenyl)ethene] | – | < 4.60 | 5.01 | 4.74 | 5.17 | 4.95 | – | – | – | – | – | ~7.00 |
| COc1cc(/C=C\c2ccncc2)cc(OC)c1OC [5i, (Z)-1-(4-Pyridyl)-2-(3,4,5-trimethoxyphenyl)ethene] | – | < 4.60 | 4.85 | 4.77 | 4.89 | 4.84 | – | – | – | – | < 5.00 | – |
| COc1ccc(Cc2cc(OC)c(OC)c(OC)c2)cc1 [compound 29, 4-Methoxyphenyl-(3,4,5-trimethoxyphenyl)methane] | 4.82 | 6.89 | 6.82 | 7.72 | 7.89 | 7.92 | – | – | – | – | – | – |
| COc1cc(/C=C\c2ccc(C(C)(C)C)cc2)cc(OC)c1OC [compound 15g, (Z)-1-(4-t-Butylphenyl)-2-(3,4,5-trimethoxyphenyl)ethene] | < 4.40 | 5.36 | 5.99 | 5.80 | 6.06 | 6.68 | – | – | – | – | – | – |
| COc1ccc(NC(=O)c2cc(OC)cc(OC)c2)cc1 [11d] | – | < 4.60 | 5.04 | 5.26 | 4.84 | 4.93 | – | – | – | lower inhibitory activity | – | – |
| COc1cccc(/C=C(/C(=O)O)c2cc(OC)c(OC)c(OC)c2)c1 [compound 23b, (E)-3-(3-Methoxyphenyl)-2-(3,4,5-trimethoxyphenyl)-prop-2-enoic acid] | < 4.40 | < 4.60 | 7.60 | < 4.60 | 6.92 | 7.30 | – | – | – | – | – | – |
| COc1cc(/C=C\c2ccc(O[Si](C)(C)C(C)(C)C)cc2)cc(OC)c1OC [5m, (Z)-1-[(4-t-Butyldimethylsilyloxy)phenyl]-2-(3,4,5-trimethoxyphenyl)ethene] | – | 4.76 | 4.96 | 5.14 | 4.97 | 5.12 | – | decreased the activity drastically | – | – | – | – |
| COc1ccc(/C=C(/C(=O)O)c2cc(OC)c(OC)c(OC)c2)cc1 [compound 23a, (E)-3-(4-Methoxyphenyl)-2-(3,4,5-trimethoxyphenyl)-prop-2-enoic acid] | < 4.40 | < 4.60 | 4.86 | 4.89 | 5.08 | 5.04 | – | – | – | – | – | – |
| COc1ccc(C(=O)c2c3cc(OC)c(OC)c(OC)c3cc[n+]2C)cc1 [compound 40, 1-(4'-Methoxybenzoyl)-5,6,7-trimethoxyisoquinoline Methiodide] | < 4.40 | < 4.60 | < 4.60 | < 4.60 | < 4.60 | < 4.60 | – | – | – | – | – | – |
| COc1cc(CCc2ccc(N)cc2)cc(OC)c1OC [compound 8z, 1-(4-Aminophenyl)-2-(3,4,5-trimethoxyphenyl)ethane] | – | < 4.60 | 4.91 | 4.93 | 4.61 | 4.90 | – | – | – | lower activity | – | – |
| COc1cc(CCc2ccc(C)cc2)cc(OC)c1OC [17d, 1-(4-Methylphenyl)-2-(3,4,5-trimethoxyphenyl)ethane] | 4.68 | 5.85 | 6.74 | 6.66 | 7.00 | 6.57 | – | – | – | – | – | – |
| COc1ccc2c(c1)CN1CCc3c(cc(OC)c(OC)c3OC)C1C2 (stereo not shown) [compound 48, 5,8,13,13a-Tetrahedro-2,3,4,10-tetramethoxy-6H-dibenzo-(a,g)quinolizine] | < 4.40 | < 4.60 | < 4.60 | < 4.60 | < 4.60 | < 4.60 | – | – | – | – | – | – |
| COc1cc(/C=C\c2ccccn2)cc(OC)c1OC [5k, (Z)-1-(2-Pyridyl)-2-(3,4,5-trimethoxyphenyl)ethene] | – | < 4.60 | < 4.60 | < 4.60 | < 4.60 | < 4.60 | – | – | – | – | < 5.00 | – |
| COc1ccc(/C(=C\c2cc(OC)c(OC)c(OC)c2)C(=O)O)cc1 [23c, (E)-2-(4-Methoxyphenyl)-3-(3,4,5-trimethoxyphenyl)-prop-2-enoic acid] | < 4.40 | < 4.60 | 5.28 | 5.72 | 5.23 | 5.64 | – | – | – | – | – | – |
| COc1ccc(/C=C\c2cc(OC)c(O[Si](C)(C)C(C)(C)C)c(OC)c2)cc1 [15k, (Z)-1-[4-{(t-Butyldimethylsilyl)-oxy}-3,5-(dimethoxy)-phenyl]-2-(4-methoxyphenyl)ethene] | < 4.40 | < 4.60 | < 4.60 | < 4.60 | 5.05 | < 4.60 | – | – | – | – | – | – |
| COc1cc(/C=C\c2ccc([N+](=O)[O-])cc2)cc(OC)c1OC [5l, (Z)-1-(4-Nitrophenyl)-2-(3,4,5-trimethoxyphenyl)ethene] | – | < 4.60 | < 4.60 | < 4.60 | < 4.60 | < 4.60 | – | decreased the activity drastically | – | – | – | – |
| COc1cc(/C=C\c2ccc(O)cc2)cc(OC)c1OC [compound 5o, (Z)-1-(4-Hydroxyphenyl)-2-(3,4,5-trimethoxyphenyl)ethene] | – | 4.90 | 4.90 | 5.24 | 5.76 | 5.64 | – | decreased the activity drastically | – | – | – | – |
| COc1ccc(C2Cc3cc(OC)c(OC)c(OC)c3C2=O)cc1 (stereo not shown) [compound 34, 2-(4-Methoxyphenyl)-4,5,6-trimethoxyindan-3-one] | < 4.40 | < 4.60 | < 4.60 | < 4.60 | < 4.60 | < 4.60 | – | – | – | – | – | – |
| COc1cc2ccc3c(OC)cccc3c2c(OC)c1OC [32d, 2,3,4,8-Tetramethoxyphenanthrene] | < 4.40 | < 4.60 | < 4.60 | 4.84 | 5.03 | 4.92 | – | – | – | – | – | – |
| CCc1ccc(CCc2cc(OC)c(OC)c(OC)c2)cc1 [17e, 1-(4-Ethylphenyl)-2-(3,4,5-trimethoxyphenyl)ethane] | 4.74 | 5.57 | 7.06 | 6.80 | 7.80 | 7.33 | – | – | – | – | – | – |
| COc1ccc(/C=C\c2ccc(OC)c(OC)c2)cc1 [15h, (Z)-(4-Methoxyphenyl)-2-(3,4-dimethoxyphenyl)ethene] | – | < 4.60 | < 4.60 | < 4.60 | < 4.60 | < 4.60 | – | – | – | – | < 4.60 | – |
| CCOc1ccc(/C=C/c2cc(OC)c(OC)c(OC)c2)cc1 [16a] | – | 6.66 | 6.77 | 6.12 | 5.83 | 5.93 | – | – | – | – | – | ~7.00 |

Source: patent US5430062A, “Stilbene derivatives as anticancer agents” (priority 1993, dated 1995)
